Data taken from US9708368B2, “Linear peptide antibiotics” (priority 2012, dated 2017).
Converted amounts (≈) assume the structure as drawn. Square brackets hold non-standard residues; d marks the D form. Peptide text beside a SMILES is read from it. * marks the point of attachment. ξ: configuration not given here. boroAla((+)-pinanediol) = C[C@H](N*)B1O[C@@H]2C[C@@H]3C[C@@H](C3(C)C)[C@]2(C)O1; X7 = CC1(C)[C@@H]2C[C@H]3OB([C@@H]4CCCN4*)O[C@@]3(C)[C@H]1C2; Biphenylcarbonyl(4'-Bu) = CCCCc1ccc(-c2ccc(C(=O)*)cc2)cc1; X1 = C[C@H](N*)B1OC2C[C@@H]3C[C@@H](C3(C)C)[C@]2(C)O1; X17 = O=C(/C=C/C=C/C12CC3CC(CC(C3)C1)C2)*; Pro(4S-NH2) = N[C@@H]1CN[C@H](C(=O)O)C1; NMeY = CN[C@@H](Cc1ccc(O)cc1)C(=O)O; NMeT = CN[C@H](C(=O)O)[C@@H](C)O; Hpg = N[C@H](C(=O)O)c1ccc(O)cc1; Thr(3ξ) = CC(O)[C@H](N)C(=O)O; X3 = CCCCCCCCCCCCS(=O)(=O)*; Decanoyl = CCCCCCCCCC(=O)*; X8 = C[C@H](N*)C(=O)C(N)=O; boroAla = C[C@H](N*)B(O)O; Aze = O=C(O)[C@@H]1CCN1; Dab = NCC[C@H](N)C(=O)O; Abu = CC[C@H](N)C(=O)O; Dap = NC[C@H](N)C(=O)O; ξK = NCCCCC(N)C(=O)O; βAla = NCCC(=O)O

Assays:
[1] = tested on: Escherichia coli strain MC4100 IMP-4213, which harbors an LptD mutation; conditions: Method B; E. coli MC4100 IMP-4213 (LptD mutation); 35° C., 22 hours
Method in brief: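 Two-fold serial dilutions of compound inoculated at final OD600 0.0005, incubated static at 35 °C for 22 h, and growth read visually.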

[2] = tested on: methicillin resistant Staphylococcus aureus (MRSA) strain USA300 (NRS384); conditions: Method B, 35° C., 22 hours
[3] = target: S. aureus SPase (Staphylococcus aureus, UniProt P0A070); assay: biochemical
[4] = target: E. coli SPase (Escherichia coli, UniProt P00803); assay: Biochemical SPase activity assay (fluorogenic peptide substrate), E. coli enzyme

Row | Compound | MIC (μg/mL) E. coli [1] [µg/mL] | MIC (μg/mL) S. aureus [2] [µg/mL] | IC50 [3] [nM] | IC50 [4] [nM]
1 | CCCCc1ccc(-c2ccc(C(=O)NCCC(=O)N[C@@H](CCCCN)C(=O)N(C)[C@H](C(=O)N[C@@H](C)C(=O)N[C@@H](CC(N)=O)C(=O)N[C@@H](C)B3OC4C[C@@H]5C[C@@H](C5(C)C)[C@]4(C)O3)[C@@H](C)O)cc2)cc1 (some centres unmarked) [Compound 192] ({Biphenylcarbonyl(4'-Bu)-βAla}-K[NMeT]AN-X1) | 16 (≈ 16.7 µM) | 0.59 (≈ 0.615 µM) | 12 | 27
2 | CCCCc1ccc(-c2ccc(C(=O)NC(CCCCN)C(=O)N[C@@H](CCCCN)C(=O)N[C@@H](C)C(=O)N[C@@H](CC(C)C)C(=O)N[C@@H](C)C(=O)C(N)=O)cc2)cc1 (some centres unmarked) [Compound 253] ({Biphenylcarbonyl(4'-Bu)}-[ξK]KAL-X8) | 11 (≈ 13.9 µM) | 8 (≈ 10.1 µM) | 2100 | 4800
3 | CCCCc1ccc(-c2ccc(C(=O)N[C@@H](CCCCN)C(=O)N[C@@H](CCC(=O)O)C(=O)N[C@@H](C)C(=O)N[C@@H](CCCCN)C(=O)N[C@@H](C)B3O[C@@H]4C[C@@H]5C[C@@H](C5(C)C)[C@]4(C)O3)cc2)cc1 [Compound 151] ({Biphenylcarbonyl(4'-Bu)}-KEAK-{boroAla((+)-pinanediol)}) | 1.2 (≈ 1.31 µM) | 0.71 (≈ 0.775 µM) | 38 | 8.8
4 | CCCCCCCCCCCCS(=O)(=O)N[C@@H](CCCCN)C(=O)N[C@H](C(=O)N[C@@H](C)C(=O)N[C@@H](CCCCN)C(=O)N[C@@H](C)B(O)O)C(C)O (some centres unmarked) [Compound 265] (X3-K[Thr(3ξ)]AK-boroAla) | 4 (≈ 5.33 µM) | 0.13 (≈ 0.173 µM) | 17 | 120
5 | CCCCc1ccc(-c2ccc(C(=O)NCCC(=O)N[C@@H](CCCCN)C(=O)N[C@H](C(=O)N[C@@H](C)C(=O)N[C@@H](CC(N)=O)C(=O)N3CCC[C@H]3B3O[C@@H]4C[C@@H]5C[C@@H](C5(C)C)[C@]4(C)O3)[C@@H](C)O)cc2)cc1 [Compound 200] ({Biphenylcarbonyl(4'-Bu)-βAla}-KTAN-X7) | 64 (≈ 65.9 µM) | >64 | 1200 | 5200
6 | CCCCc1ccc(-c2ccc(C(=O)N[C@@H](CCN)C(=O)N3CC[C@H]3C(=O)N[C@@H](C)C(=O)N[C@@H](CCCCN)C(=O)N[C@@H](C)B3O[C@@H]4C[C@@H]5C[C@@H](C5(C)C)[C@]4(C)O3)cc2)cc1 [Compound 183] ({Biphenylcarbonyl(4'-Bu)}-[Dab][Aze]AK-{boroAla((+)-pinanediol)}) | 1 (≈ 1.19 µM) | 1 (≈ 1.19 µM) | 610 | 20
7 | CCCCc1ccc(-c2ccc(C(=O)NCCC(=O)N3C[C@@H](N)C[C@H]3C(=O)N[C@H](C(=O)N[C@@H](C)C(=O)N[C@@H](CC(N)=O)C(=O)N[C@@H](C)B3OC4C[C@@H]5C[C@@H](C5(C)C)[C@]4(C)O3)[C@@H](C)O)cc2)cc1 (stereo partly drawn) [Compound 213] ({Biphenylcarbonyl(4'-Bu)-βAla}-[Pro(4S-NH2)]TAN-X1) | 1.3 (≈ 1.4 µM) | 0.22 (≈ 0.237 µM) | 7.7 | 6.8
8 | CCCCc1ccc(-c2ccc(CNCCC(=O)N[C@H](C(=O)N[C@@H](C)C(=O)N[C@@H](CCCCN)C(=O)N[C@@H](C)B3O[C@@H]4C[C@@H]5C[C@@H](C5(C)C)[C@]4(C)O3)[C@@H](C)O)cc2)cc1 [Compound 270] | 8 (≈ 9.79 µM) | 0.5 (≈ 0.612 µM) | 120 | 650
9 | CCCCCCCCCC(=O)N[C@@H](CN)C(=O)N[C@H](C(=O)N[C@@H](C)C(=O)N[C@@H](CCCCN)C(=O)N[C@@H](C)B1OC2C[C@@H]3C[C@@H](C3(C)C)[C@]2(C)O1)[C@@H](C)O (some centres unmarked) [Compound 169] (Decanoyl-[Dap]TAK-X1) | 11 (≈ 14.4 µM) | 3.2 (≈ 4.19 µM) | 87 | 3.9
10 | CCCCc1ccc(-c2ccc(C(=O)NCCC(=O)N[C@@H](CCCCN)C(=O)N3CCC[C@H]3C(=O)N[C@@H](C)C(=O)N[C@@H](CCCCN)C(=O)N[C@@H](C)B(O)O)cc2)cc1 [Compound 221] ({Biphenylcarbonyl(4'-Bu)-βAla}-KPAK-boroAla) | 8 (≈ 9.75 µM) | 1 (≈ 1.22 µM) | 130 | 62
11 | CCCCc1ccc(-c2ccc(C(=O)NCCC(=O)N[C@@H](CCCCN)C(=O)N[C@H](C(=O)N[C@@H](C)C(=O)N[C@H](C(=O)N[C@@H](C)B3O[C@@H]4C[C@@H]5C[C@@H](C5(C)C)[C@]4(C)O3)C(C)C)[C@@H](C)O)cc2)cc1 [Compound 194] ({Biphenylcarbonyl(4'-Bu)-βAla}-KTAV-{boroAla((+)-pinanediol)}) | 6.3 (≈ 6.77 µM) | 0.71 (≈ 0.763 µM) | 4.7 | 16
12 | CCCCc1ccc(-c2ccc(C(=O)NCCC(=O)N[C@@H](CCCCN)C(=O)N3CCC[C@H]3C(=O)N[C@@H](C)C(=O)N[C@@H](CC(N)=O)C(=O)N[C@@H](C)B3OC4C[C@@H]5C[C@@H](C5(C)C)[C@]4(C)O3)cc2)cc1 (some centres unmarked) [Compound 208] ({Biphenylcarbonyl(4'-Bu)-βAla}-KPAN-X1) | 4 (≈ 4.25 µM) | 0.31 (≈ 0.329 µM) | 5.7 | 20
13 | CCCCc1ccc(-c2ccc(C(=O)NCCC(=O)N[C@@H](CCCCN)C(=O)N[C@H](C(=O)N[C@@H](CC)C(=O)N[C@@H](CC(N)=O)C(=O)N[C@@H](C)B3OC4C[C@@H]5C[C@@H](C5(C)C)[C@]4(C)O3)[C@@H](C)O)cc2)cc1 (some centres unmarked) [Compound 206] ({Biphenylcarbonyl(4'-Bu)-βAla}-KT[Abu]N-X1) | 2 (≈ 2.09 µM) | 0.5 (≈ 0.521 µM) | 5.2 | 6.3
14 | C[C@H](NC(=O)[C@H](CCCCN)NC(=O)[C@H](C)NC(=O)[C@@H](NC(=O)[C@H](CCN)NC(=O)/C=C/C=C/C12CC3CC(CC(C3)C1)C2)[C@@H](C)O)B1O[C@@H]2C[C@@H]3C[C@@H](C3(C)C)[C@]2(C)O1 [Compound 240] (X17-[Dab]TAK-{boroAla((+)-pinanediol)}) | 4 (≈ 4.77 µM) | 0.71 (≈ 0.847 µM) | 88 | 28
15 | CCCCc1ccc(-c2ccc(C(=O)N[C@@H](CCN)C(=O)N[C@H](C(=O)N[C@@H](C)C(=O)N[C@@H](CCCCN)C(=O)N[C@@H](C)B3OC4C[C@@H]5C[C@@H](C5(C)C)[C@]4(C)O3)[C@@H](C)O)nc2)cc1 (some centres unmarked) [Compound 233] | 1 (≈ 1.16 µM) | 0.5 (≈ 0.581 µM) | 220 | 29
16 | CCCCc1ccc(-c2ccc(C(=O)N[C@@H](CCCCN)C(=O)N3CCC[C@H]3C(=O)N[C@@H](C)C(=O)N[C@@H](CC(N)=O)C(=O)N[C@@H](C)B3O[C@@H]4C[C@@H]5C[C@@H](C5(C)C)[C@]4(C)O3)cc2)cc1 [Compound 133] ({Biphenylcarbonyl(4'-Bu)}-KPAN-{boroAla((+)-pinanediol)}) | 0.79 (≈ 0.908 µM) | 1.4 (≈ 1.61 µM) | 170 | 15
17 | CCCCc1ccc(-c2ccc(C(=O)NCCC(=O)N[C@@H](CCCCN)C(=O)N[C@H](C(=O)N[C@@H](C)C(=O)N[C@@H](CC(N)=O)C(=O)N[C@@H](C)B3OC4C[C@@H]5C[C@@H](C5(C)C)[C@]4(C)O3)c3ccc(O)cc3)cc2)cc1 (some centres unmarked) [Compound 209] ({Biphenylcarbonyl(4'-Bu)-βAla}-K[Hpg]AN-X1) | 2.5 (≈ 2.52 µM) | 1 (≈ 1.01 µM) | 15 | 12
18 | CCCCc1ccc(-c2ccc(C(=O)N[C@@H](CCN)C(=O)N[C@H](C(=O)N[C@@H](C)C(=O)N[C@@H](CCCCN)C(=O)N[C@@H](C)B3OC4C[C@@H]5C[C@@H](C5(C)C)[C@]4(C)O3)[C@@H](C)O)cn2)cc1 (some centres unmarked) [Compound 234] | 0.5 (≈ 0.581 µM) | 0.4 (≈ 0.465 µM) | 53 | 8.3
19 | CCCCc1ccc(-c2ccc(C(=O)N[C@@H](CCCCN)C(=O)N(C)[C@@H](Cc3ccc(O)cc3)C(=O)N[C@@H](C)C(=O)N[C@@H](CCCCN)C(=O)N[C@@H](C)B(O)O)cc2)cc1 [Compound 157] ({Biphenylcarbonyl(4'-Bu)}-K[NMeY]AK-boroAla) | 4 (≈ 4.82 µM) | 2 (≈ 2.41 µM) | 1000 | 130
20 | CCCCc1ccc(-c2ccc(C(=O)N[C@@H](CCCCN)C(=O)N[C@@H](CCCCN)C(=O)N[C@@H](C)C(=O)N[C@@H](CC(N)=O)C(=O)N[C@@H](C)B3O[C@@H]4C[C@@H]5C[C@@H](C5(C)C)[C@]4(C)O3)cc2)cc1 [Compound 134] ({Biphenylcarbonyl(4'-Bu)}-KKAN-{boroAla((+)-pinanediol)}) | 1.4 (≈ 1.55 µM) | 0.87 (≈ 0.966 µM) | 120 | 8.7
